Experiments:
[1] = molecular target: T1, AuroraA-TPX2 (Homo sapiens, UniProt O14965); assay: AuroraA-TPX2 Homogeneous Time Resolved Fluorescent (HTRF) kinase assay; format: biochemical; conditions: average; read-out: AurA_IC50_IP (uM Avg)
T1 construct: 20 μL of AuroraA-TPX2 KD GST for a final volume of about 41 μL; GST
T1 sequence (O14965 133-383 limits assumed): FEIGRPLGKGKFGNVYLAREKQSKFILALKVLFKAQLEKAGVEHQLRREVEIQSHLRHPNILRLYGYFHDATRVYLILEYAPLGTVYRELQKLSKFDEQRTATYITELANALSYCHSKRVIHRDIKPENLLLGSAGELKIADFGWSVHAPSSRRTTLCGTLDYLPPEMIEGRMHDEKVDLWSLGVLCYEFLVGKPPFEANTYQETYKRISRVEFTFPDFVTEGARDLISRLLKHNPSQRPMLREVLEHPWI
T1 sequence (Q9ULW0 1-43 partner limits assumed): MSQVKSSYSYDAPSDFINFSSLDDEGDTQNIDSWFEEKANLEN
Method: AuroraA-TPX2-Homogeneous Time Resolved Fluorescent (HTRF) Kinase Assay:
The Aurora-A HTRF assay begins with Aurora-A in the presence of ATP phosphorylating the biotinylated peptide PLK. The reaction incubates for about 120 min. Detection reagents are added to quench the reaction. These agents stop the reaction by diluting out the enzyme and chelating the metals due to the presence of EDTA. After addition, the assay is incubated overnight to allow the detection reagents to equilibrate.
The AuroraA HTRF assay comprises 1 μL of compound in 100% DMSO, 20 μL of ATP and biotinylated PLK, and 20 μL of AuroraA-TPX2 KD GST for a final volume of about 41 μL. The final concentration of PLK is about 1 μM. […] Buffer conditions are as follows: 60 mM HEPES pH 7.5, 25 mM NaCl, 10 mM MgCl, 2 mM DTT, 0.05% BSA.
(§1) The assay is quenched and stopped with 160 μL of detection reagent. Detection reagents are as follows: Buffer made of 50 mM Tris, pH 7.5, 100 mM NaCl, 3 mM EDTA, 0.05% BSA, 0.1% Tween20. Added to this buffer prior to reading is Steptavidin allophycocyanin (SA-APC) at a final conc in the assay of 0.0005 mg/mL, and europilated anti-phosphoPLK Ab (Eu-anti-PLK) at a final conc of 0.02 nM.
The assay plate is read in either a Discovery or a RubyStar. The eu-anti-PLK is excited at 320 nm and emits at 615 nm to excite the SA-APC which in turn emits at 655 nm.

[2] = molecular target: T2, AuroraB (Homo sapiens, UniProt Q96GD4); assay: AuroraB Homogeneous Time Resolved Fluorescent (HTRF) kinase assay; format: biochemical; conditions: average; read-out: AurB_IC50_IP (uM Avg)
T2 construct: 20 μL of AuroraB FL H is for a final volume of 41 μL; His
Method: AuroraB-Homogeneous Time Resolved Fluorescent (HTRF) Kinase Assay:
The AuroraB HTRF assay begins with AuroraB in the presence of ATP phosphorylating the biotinylated peptide Histone H3. The reaction incubates for about 90 min. the reaction is quenched by addition of detection reagents, which stop the reaction by diluting out the enzyme and chelating the metals due to the presence of EDTA. After addition, the assay is incubated for about 60 min to allow detection reagents to equilibrate.
The AuroraB HTRF assay comprises 1 μL of compound in 100% DMSO, 20 μL of ATP and biotinylated Histone H3, and 20 μL of AuroraB FL H is for a final volume of 41 μL. The final concentration of Histone H3 is 0.1 μM. […] Buffer conditions are as follows: 50 mM HEPES pH 7.5, 5 mM NaCl, 0.5 mM MgCl, 0.5 mM MnCl, 2 mM DTT, 0.05% BSA.
as §1, with “0.001” for “0.0005”, “anti-phosphoHistoneH3” for “anti-phosphoPLK”, “(Eu-anti-HisH3)” for “(Eu-anti-PLK)”, “0.064” for “0.02”
The assay plate is read in either a Discovery or a RubyStar. The eu-anti-HisH3 is excited at 320 nm and emits at 615 nm to excite the SA-APC which in turn emits at 655 nm.

T2 sequence (Q96GD4 whole entry): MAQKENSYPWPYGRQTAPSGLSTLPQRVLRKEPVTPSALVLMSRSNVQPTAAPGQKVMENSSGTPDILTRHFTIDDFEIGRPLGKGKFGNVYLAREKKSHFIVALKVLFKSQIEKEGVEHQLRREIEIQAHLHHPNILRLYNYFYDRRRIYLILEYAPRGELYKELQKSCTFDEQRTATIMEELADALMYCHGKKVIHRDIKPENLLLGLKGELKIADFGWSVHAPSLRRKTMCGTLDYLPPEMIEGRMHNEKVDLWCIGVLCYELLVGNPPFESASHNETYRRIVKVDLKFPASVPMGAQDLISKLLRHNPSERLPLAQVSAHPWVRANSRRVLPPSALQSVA

Row | IC50 [1] | IC50 [2] | SMILES
1 | 0.532 µM | 0.645 µM | COc1cnc2c([S+]([O-])c3ccc(Nc4nnc(-c5ccc(F)cc5)c5ccccc45)cc3)ccnc2c1 (stereo not drawn) [Example 410, 4-(4-fluorophenyl)-N-(4-(7-methoxy-1,5-naphthyridin-4-ylsulfinyl)phenyl)phthalazin-1-amine]
2 | 0.021 µM | 0.001 µM | CCc1cc(-c2ccccc2)nnc1Nc1ccc(Oc2ccnc3cc(C(N)=O)ccc23)cc1 [compound 49, 4-((4-((4-ethyl-6-phenyl-3-pyridazinyl)amino)phenyl)oxy)-7-quinolinecarboxamide]
3 | 0.86 µM | 0.023 µM | COc1cnc2c(N(C)c3ccc(Nc4nnc(-c5ccccc5)c5ccccc45)cc3)ccnc2c1 [compound 51, N-methyl-N-(7-(methyloxy)-1,5-naphthyridin-4-yl)-N′-(4-phenyl-1-phthalazinyl)-1,4-benzenediamine]
4 | 0.014 µM | 0.032 µM | COc1cc2nccc(Oc3ccc(Nc4nnc(-c5ccc(C)c(C)c5)c5ccccc45)cc3)c2cc1OC [compound 74, N-(4-((6,7-bis(methyloxy)-4-quinolinyl)oxy)phenyl)-4-(3,4-dimethylphenyl)-1-phthalazinamine]
5 | 0.023 µM | 0.042 µM | COc1cc2nccc(Oc3ccc(Nc4nnc(N5CCCCC5)c5ccccc45)cc3)c2cc1OC [compound 75, N-(4-((6,7-bis(methyloxy)-4-quinolinyl)oxy)phenyl)-4-(1-piperidinyl)-1-phthalazinamine]
6 | 0.034 µM | 0.106 µM | COc1cc2nccc(Oc3ccc(Nc4nnc(-c5cccs5)c5ccccc45)cc3F)c2cc1OC [compound 76, N-(4-((6,7-bis(methyloxy)-4-quinolinyl)oxy)-3-fluorophenyl)-4-(2-thienyl)-1-phthalazinamine]
7 | 0.701 µM | 0.079 µM | COc1cc2nccc(Oc3ccc(Nc4nnc(-n5nc(C)cc5C)c5ccccc45)cc3F)c2cc1OC [compound 77, N-(4-((6,7-bis(methyloxy)-4-quinolinyl)oxy)-3-fluorophenyl)-4-(3,5-dimethyl-1H-pyrazol-1-yl)-1-phthalazinamine]
8 | 0.022 µM | 0.004 µM | NC(=O)c1cc2nccc(Oc3ccc(Nc4nnc(-c5ccccc5)c5ccccc45)cc3F)c2s1 [compound 78, 7-((2-fluoro-4-((4-phenyl-1-phthalazinyl)amino)phenyl)oxy)thieno-[3,2-b]pyridine-2-carboxamide]
9 | 0.028 µM | 0.008 µM | COc1cnc2c(Oc3ccc(Nc4nnc(-c5ccccc5)c5ccccc45)cc3)ccnc2c1 [compound 79, N-(4-((7-(methyloxy)-1,5-naphthyridin-4-yl)oxy)phenyl)-4-phenyl-1-phthalazinamine]
10 | 0.414 µM | 0.041 µM | COc1cnc2c(Oc3ccc(Nc4nnc(-c5cc(F)ccc5OC)c5ccccc45)cc3)ccnc2c1 [compound 80, 4-(5-fluoro-2-(methyloxy)phenyl)-N-(4-((7-(methyloxy)-1,5-naphthyridin-4-yl)oxy)phenyl)-1-phthalazinamine]
11 | 0.012 µM | 0.006 µM | COc1cnc2c(Oc3ccc(Nc4nnc(-c5ccc(C)cc5)c5ccccc45)cc3)ccnc2c1 [compound 81, N-(4-((7-(methyloxy)-1,5-naphthyridin-4-yl)oxy)phenyl)-4-(4-methylphenyl)-1-phthalazinamine]
12 | 0.013 µM | 0.006 µM | COc1cnc2c(Oc3ccc(Nc4nnc(-c5nc(C)cs5)c5ccccc45)cc3)ccnc2c1 [compound 82, N-(4-((7-(methyloxy)-1,5-naphthyridin-4-yl)oxy)phenyl)-4-(4-methyl-1,3-thiazol-2-yl)-1-phthalazinamine]
13 | 0.08 µM | 0.01 µM | CCc1cc(-c2ccccc2)nnc1Nc1ccc(Oc2ccnc3cc(OC)cnc23)nc1 [compound 83, 4-ethyl-N-(6-((7-(methyloxy)-1,5-naphthyridin-4-yl)oxy)-3-pyridinyl)-6-phenyl-3-pyridazinamine]
14 | 0.16 µM | 0.002 µM | COc1cnc2c(Oc3cnc(Nc4nnc(-c5ccccc5)c5ccccc45)nc3)ccnc2c1 [compound 84, N-(5-((7-(methyloxy)-1,5-naphthyridin-4-yl)oxy)-2-pyrimidinyl)-4-phenyl-1-phthalazinamine]
15 | 0.066 µM | 0.004 µM | COc1cnc2c(Oc3ccc(Nc4nnc(N5CCN(C)CC5)c5ccccc45)cc3)ccnc2c1 [compound 85, N-(4-((7-(methyloxy)-1,5-naphthyridin-4-yl)oxy)phenyl)-4-(4-methyl-1-piperazinyl)-1-phthalazinamine]
16 | 0.031 µM | 0.014 µM | Cc1csc(-c2nnc(Nc3ccc(Oc4ccnc5cc(C#N)ccc45)cc3)c3ccccc23)n1 [compound 86, 4-((4-((4-(4-methyl-1,3-thiazol-2-yl)-1-phthalazinyl)amino)phenyl)oxy)-7-quinolinecarbonitrile]
17 | 0.142 µM | 0.013 µM | COc1ccc(F)cc1-c1nnc(Nc2ccc(Oc3ccnc4cc(C#N)ccc34)cc2)c2ccccc12 [compound 87, 4-((4-((4-(5-fluoro-2-(methyloxy)phenyl)-1-phthalazinyl)amino)phenyl)oxy)-7-quinolinecarbonitrile]
18 | 0.006 µM | 0.003 µM | Cc1ccc(-c2nnc(Nc3ccc(Oc4ccnc5cc(C#N)ccc45)cc3)c3ccccc23)cc1 [compound 88, 4-((4-((4-(4-methylphenyl)-1-phthalazinyl)amino)phenyl)oxy)-7-quinolinecarbonitrile]
19 | 0.012 µM | 0.007 µM | COc1cnc2c(Oc3ccc(Nc4nnc(-c5ccccc5)c5ccccc45)cc3F)ccnc2c1 [compound 89, N-(3-fluoro-4-((7-(methyloxy)-1,5-naphthyridin-4-yl)oxy)phenyl)-4-phenyl-1-phthalazinamine]
20 | 0.019 µM | 0.025 µM | COc1cc2nccc(Oc3ccc(Nc4nnc(-c5ccccc5)c5ccccc45)cc3)c2cc1OC [compound 90, N-(4-((6,7-bis(methyloxy)-4-quinolinyl)oxy)phenyl)-4-phenyl-1-phthalazinamine]
21 | 0.054 µM | 0.012 µM | COc1ccc2c(Oc3ccc(Nc4nnc(-c5ccccc5)c5ccccc45)cc3)ccnc2c1 [compound 91, N-(4-((7-(methyloxy)-4-quinolinyl)oxy)phenyl)-4-phenyl-1-phthalazinamine]
22 | 0.007 µM | 0.003 µM | COc1cnc2c(Oc3ccc(Nc4nnc(N5CCN6CCCC6C5)c5ccccc45)cc3)ccnc2c1 (stereo not drawn) [compound 92, 4-(hexahydropyrrolo[1,2-a]pyrazin-2(1H)-yl)-N-(4-((7-(methyloxy)-1,5-naphthyridin-4-yl)oxy)phenyl)-1-phthalazinamine]
23 | 0.008 µM | 0.001 µM | N#Cc1ccc2c(Oc3ccc(Nc4nnc(-c5cccc(O)c5)c5ccccc45)cc3)ccnc2c1 [compound 93, 4-((4-((4-(3-hydroxyphenyl)-1-phthalazinyl)amino)phenyl)oxy)-7-quinolinecarbonitrile]
24 | 0.027 µM | 0.001 µM | CN1CCN(c2nnc(Nc3ccc(Oc4ccnc5cc(C#N)ccc45)cc3)c3ccccc23)CC1 [compound 94, 4-((4-((4-(4-methyl-1-piperazinyl)-1-phthalazinyl)amino)phenyl)oxy)-7-quinolinecarbonitrile]

From patent US8557816B2, “Aurora kinase modulators and method of use” (Amgen Inc., priority 2007, dated 2013)
